ChEMBL document CHEMBL3400015, “Tertiary amides of Salinomycin: A new group of antibacterial agents against Bacillus anthracis and methicillin-resistant Staphylococcus epidermidis” (Bioorg Med Chem Lett, 2015)
Converted amounts (≈) assume the structure as drawn.

Key:
[1] = system: Staphylococcus epidermidis; assay: Antimicrobial activity against methicillin-resistant Staphylococcus epidermidis isolate 409/10 after 18 hrs by twofold serial broth dilution method; format: functional; settings: isolate 409/10, 18 h
[2] = system: Staphylococcus epidermidis; assay: Bactericidal activity against methicillin-resistant Staphylococcus epidermidis isolate 405/10 after 24 hrs; format: functional; settings: isolate 405/10, 24 h, read-out: MBC99.9
Bacillus anthracis = assay: Antimicrobial activity against Bacillus anthracis 34F2 after 18 hrs by twofold serial broth dilution method; format: functional; settings: 34F2, 18 h
[3] = system: Staphylococcus epidermidis; assay: Antimicrobial activity against methicillin-resistant Staphylococcus epidermidis isolate 470/11 after 18 hrs by twofold serial broth dilution method; format: functional; settings: isolate 470/11, 18 h
Staphylococcus aureus [4] = assay: Bactericidal activity against Staphylococcus aureus NCTC 4163 after 24 hrs; format: functional; settings: NCTC 4163, 24 h, read-out: MBC99.9
[5] = system: Staphylococcus epidermidis; assay: Antimicrobial activity against methicillin-resistant Staphylococcus epidermidis isolate 459/11 after 18 hrs by twofold serial broth dilution method; format: functional; settings: isolate 459/11, 18 h
[6] = system: Staphylococcus epidermidis; assay: Antimicrobial activity against methicillin-resistant Staphylococcus epidermidis isolate 455/11 after 18 hrs by twofold serial broth dilution method; format: functional; settings: isolate 455/11, 18 h
Escherichia coli [7] = assay: Bactericidal activity against Escherichia coli ATCC 10538 after 24 hrs; format: functional; settings: ATCC 10538, 24 h, read-out: MBC99.9
[8] = system: Staphylococcus epidermidis; assay: Bactericidal activity against Staphylococcus epidermidis ATCC 35984 after 24 hrs; format: functional; settings: ATCC 35984, 24 h, read-out: MBC99.9
[9] = system: Staphylococcus epidermidis; assay: Antimicrobial activity against methicillin-resistant Staphylococcus epidermidis isolate 457/11 after 18 hrs by twofold serial broth dilution method; format: functional; settings: isolate 457/11, 18 h
Staphylococcus aureus [10] = assay: Antimicrobial activity against Staphylococcus aureus […] after 18 hrs by twofold serial broth dilution method; format: functional
[11] = system: Staphylococcus epidermidis; assay: Bactericidal activity against methicillin-resistant Staphylococcus epidermidis isolate 458/11 after 24 hrs; format: functional; settings: isolate 458/11, 24 h, read-out: MBC99.9
Escherichia coli [12] = assay: Antimicrobial activity against Escherichia coli NCTC 8196 after 18 hrs by twofold serial broth dilution method; format: functional; settings: NCTC 8196, 18 h
[13] = system: Staphylococcus epidermidis; assay: Antimicrobial activity against methicillin-resistant Staphylococcus epidermidis isolate 461/11 after 18 hrs by twofold serial broth dilution method; format: functional; settings: isolate 461/11, 18 h
Staphylococcus aureus [14] = assay: Antimicrobial activity against Staphylococcus aureus ATCC 6538 after 18 hrs by twofold serial broth dilution method; format: functional; settings: ATCC 6538, 18 h
[15] = system: Staphylococcus epidermidis; assay: Bactericidal activity against methicillin-resistant Staphylococcus epidermidis isolate 459/11 after 24 hrs; format: functional; settings: isolate 459/11, 24 h, read-out: MBC99.9
Pseudomonas aeruginosa [16] = assay: Bactericidal activity against Pseudomonas aeruginosa ATCC 27853 after 24 hrs; format: functional; settings: ATCC 27853, 24 h, read-out: MBC99.9
[17] = system: Staphylococcus epidermidis; assay: Bactericidal activity against methicillin-resistant Staphylococcus epidermidis isolate 404/10 after 24 hrs; format: functional; settings: isolate 404/10, 24 h, read-out: MBC99.9
Pseudomonas aeruginosa [18] = assay: Antimicrobial activity against Pseudomonas aeruginosa ATCC 15442 after 18 hrs by twofold serial broth dilution method; format: functional; settings: ATCC 15442, 18 h
Staphylococcus aureus [19] = assay: Bactericidal activity against Staphylococcus aureus ATCC 6538 after 24 hrs; format: functional; settings: ATCC 6538, 24 h, read-out: MBC99.9
Staphylococcus aureus [20] = assay: Bactericidal activity against Staphylococcus aureus […] after 24 hrs; format: functional; settings: read-out: MBC99.9
[21] = system: Staphylococcus epidermidis; assay: Bactericidal activity against methicillin-resistant Staphylococcus epidermidis isolate 461/11 after 24 hrs; format: functional; settings: isolate 461/11, 24 h, read-out: MBC99.9
[22] = system: Staphylococcus epidermidis; assay: Antimicrobial activity against methicillin-resistant Staphylococcus epidermidis isolate 469/11 after 18 hrs by twofold serial broth dilution method; format: functional; settings: isolate 469/11, 18 h
Pseudomonas aeruginosa [23] = assay: Antimicrobial activity against Pseudomonas aeruginosa NCTC 6749 after 18 hrs by twofold serial broth dilution method; format: functional; settings: NCTC 6749, 18 h
Bacillus subtilis = assay: Genotoxicity in rec-positive Bacillus subtilis H17 at 2 ug/9 mm disc after 24 hrs by disc diffusion method; format: toxicity, organism-based
[24] = system: Staphylococcus epidermidis; assay: Bactericidal activity against methicillin-resistant Staphylococcus epidermidis isolate 407/10 after 24 hrs; format: functional; settings: isolate 407/10, 24 h, read-out: MBC99.9
[25] = system: Staphylococcus epidermidis; assay: Antimicrobial activity against methicillin-resistant Staphylococcus epidermidis isolate 424/10 after 18 hrs by twofold serial broth dilution method; format: functional; settings: isolate 424/10, 18 h
[26] = system: Staphylococcus epidermidis; assay: Bactericidal activity against methicillin-resistant Staphylococcus epidermidis isolate 454/11 after 24 hrs; format: functional; settings: isolate 454/11, 24 h, read-out: MBC99.9
[27] = system: Staphylococcus epidermidis; assay: Bactericidal activity against methicillin-resistant Staphylococcus epidermidis isolate 403/10 after 24 hrs; format: functional; settings: isolate 403/10, 24 h, read-out: MBC99.9
Staphylococcus aureus [28] = assay: Antimicrobial activity against Staphylococcus aureus ATCC 25923 after 18 hrs by twofold serial broth dilution method; format: functional; settings: ATCC 25923, 18 h
[29] = system: Staphylococcus epidermidis; assay: Bactericidal activity against methicillin-resistant Staphylococcus epidermidis isolate 469/11 after 24 hrs; format: functional; settings: isolate 469/11, 24 h, read-out: MBC99.9
[30] = system: Staphylococcus epidermidis; assay: Antimicrobial activity against methicillin-resistant Staphylococcus epidermidis isolate 403/10 after 18 hrs by twofold serial broth dilution method; format: functional; settings: isolate 403/10, 18 h
Escherichia coli [31] = assay: Bactericidal activity against Escherichia coli NCTC 8196 after 24 hrs; format: functional; settings: NCTC 8196, 24 h, read-out: MBC99.9
[32] = system: Staphylococcus epidermidis; assay: Bactericidal activity against methicillin-resistant Staphylococcus epidermidis isolate 457/11 after 24 hrs; format: functional; settings: isolate 457/11, 24 h, read-out: MBC99.9
[33] = system: Staphylococcus epidermidis; assay: Bactericidal activity against methicillin-resistant Staphylococcus epidermidis isolate 422/10 after 24 hrs; format: functional; settings: isolate 422/10, 24 h, read-out: MBC99.9
[34] = system: Staphylococcus epidermidis; assay: Bactericidal activity against methicillin-resistant Staphylococcus epidermidis isolate 409/10 after 24 hrs; format: functional; settings: isolate 409/10, 24 h, read-out: MBC99.9
[35] = system: Staphylococcus epidermidis; assay: Antimicrobial activity against Staphylococcus epidermidis ATCC 12228 after 18 hrs by twofold serial broth dilution method; format: functional; settings: ATCC 12228, 18 h
[36] = system: Staphylococcus epidermidis; assay: Bactericidal activity against Staphylococcus epidermidis ATCC 12228 after 24 hrs; format: functional; settings: ATCC 12228, 24 h, read-out: MBC99.9
[37] = system: Staphylococcus epidermidis; assay: Antimicrobial activity against methicillin-resistant Staphylococcus epidermidis isolate 458/11 after 18 hrs by twofold serial broth dilution method; format: functional; settings: isolate 458/11, 18 h
[38] = system: Staphylococcus epidermidis; assay: Bactericidal activity against methicillin-resistant Staphylococcus epidermidis isolate 460/11 after 24 hrs; format: functional; settings: isolate 460/11, 24 h, read-out: MBC99.9
[39] = system: Staphylococcus epidermidis; assay: Bactericidal activity against methicillin-resistant Staphylococcus epidermidis isolate 424/10 after 24 hrs; format: functional; settings: isolate 424/10, 24 h, read-out: MBC99.9
[40] = system: Staphylococcus epidermidis; assay: Antimicrobial activity against methicillin-resistant Staphylococcus epidermidis isolate 454/11 after 18 hrs by twofold serial broth dilution method; format: functional; settings: isolate 454/11, 18 h
Pseudomonas aeruginosa [41] = assay: Bactericidal activity against Pseudomonas aeruginosa NCTC 6749 after 24 hrs; format: functional; settings: NCTC 6749, 24 h, read-out: MBC99.9

## CCCN(CCC)C(=O)[C@H](CC)[C@H]1CC[C@H](C)[C@H]([C@@H](C)[C@H](O)[C@H](C)C(=O)[C@H](CC)[C@H]2O[C@]3(C=C[C@@H](O)[C@]4(CC[C@@](C)([C@H]5CC[C@](O)(CC)[C@H](C)O5)O4)O3)[C@H](C)C[C@@H]2C)O1
[1]
  MIC: 8 µg/mL (≈ 9.59 µM)
[2]
  MBC: 128 µg/mL (≈ 153 µM)
Bacillus anthracis
  MIC: 4 µg/mL (≈ 4.8 µM)
[3]
  MIC: 8 µg/mL (≈ 9.59 µM)
Staphylococcus aureus [4]
  MBC: > 256 µg/mL
[5]
  MIC: 4 µg/mL (≈ 4.8 µM)
[6]
  MIC: 8 µg/mL (≈ 9.59 µM)
Escherichia coli [7]
  MBC: > 256 µg/mL
[8]
  MBC: 256 µg/mL (≈ 307 µM)
[9]
  MIC: 8 µg/mL (≈ 9.59 µM)
Staphylococcus aureus [10]
  MIC: 2 µg/mL (≈ 2.4 µM)
[11]
  MBC: 256 µg/mL (≈ 307 µM)
Escherichia coli [12]
  MIC: > 256 µg/mL
[13]
  MIC: 4 µg/mL (≈ 4.8 µM)
Staphylococcus aureus [14]
  MIC: 1 µg/mL (≈ 1.2 µM)
[15]
  MBC: 128 µg/mL (≈ 153 µM)
Pseudomonas aeruginosa [16]
  MBC: > 256 µg/mL
[17]
  MBC: 128 µg/mL (≈ 153 µM)
Pseudomonas aeruginosa [18]
  MIC: > 256 µg/mL
Staphylococcus aureus [19]
  MBC: 256 µg/mL (≈ 307 µM)
Staphylococcus aureus [20]
  MBC: 256 µg/mL (≈ 307 µM)
[21]
  MBC: 128 µg/mL (≈ 153 µM)
[22]
  MIC: 4 µg/mL (≈ 4.8 µM)
Pseudomonas aeruginosa [23]
  MIC: > 256 µg/mL
Bacillus subtilis
  diameter of the inhibition zone (DIZ): 28 mm
[24]
  MBC: 256 µg/mL (≈ 307 µM)
[25]
  MIC: 8 µg/mL (≈ 9.59 µM)
[26]
  MBC: 128 µg/mL (≈ 153 µM)
[27]
  MBC: 128 µg/mL (≈ 153 µM)
Staphylococcus aureus [28]
  MIC: 1 µg/mL (≈ 1.2 µM)
[29]
  MBC: 128 µg/mL (≈ 153 µM)
[30]
  MIC: 4 µg/mL (≈ 4.8 µM)
Escherichia coli [31]
  MBC: > 256 µg/mL
[32]
  MBC: 256 µg/mL (≈ 307 µM)
[33]
  MBC: 128 µg/mL (≈ 153 µM)
[34]
  MBC: 128 µg/mL (≈ 153 µM)
[35]
  MIC: 2 µg/mL (≈ 2.4 µM)
[36]
  MBC: 256 µg/mL (≈ 307 µM)
[37]
  MIC: 8 µg/mL (≈ 9.59 µM)
[38]
  MBC: 256 µg/mL (≈ 307 µM)
[39]
  MBC: 256 µg/mL (≈ 307 µM)
[40]
  MIC: 4 µg/mL (≈ 4.8 µM)
Pseudomonas aeruginosa [41]
  MBC: > 256 µg/mL

## CC[C@@H](C(=O)[C@@H](C)[C@@H](O)[C@H](C)[C@@H]1O[C@@H]([C@@H](CC)C(=O)N(CCOC)CCOC)CC[C@@H]1C)[C@H]1O[C@]2(C=C[C@@H](O)[C@]3(CC[C@@](C)([C@H]4CC[C@](O)(CC)[C@H](C)O4)O3)O2)[C@H](C)C[C@@H]1C
[1]
  MIC: 128 µg/mL (≈ 148 µM)
[2]
  MBC: > 256 µg/mL
Bacillus anthracis
  MIC: 512 µg/mL (≈ 591 µM)
[3]
  MIC: 256 µg/mL (≈ 296 µM)
Staphylococcus aureus [4]
  MBC: > 256 µg/mL
[5]
  MIC: 128 µg/mL (≈ 148 µM)
[6]
  MIC: 128 µg/mL (≈ 148 µM)
Escherichia coli [7]
  MBC: > 256 µg/mL
[8]
  MBC: > 256 µg/mL
[9]
  MIC: 128 µg/mL (≈ 148 µM)
Staphylococcus aureus [10]
  MIC: 128 µg/mL (≈ 148 µM)
[11]
  MBC: > 256 µg/mL
Escherichia coli [12]
  MIC: > 256 µg/mL
[13]
  MIC: 256 µg/mL (≈ 296 µM)
Staphylococcus aureus [14]
  MIC: 64 µg/mL (≈ 73.9 µM)
[15]
  MBC: > 256 µg/mL
Pseudomonas aeruginosa [16]
  MBC: > 256 µg/mL
[17]
  MBC: > 256 µg/mL
Pseudomonas aeruginosa [18]
  MIC: > 256 µg/mL
Staphylococcus aureus [19]
  MBC: > 256 µg/mL
Staphylococcus aureus [20]
  MBC: > 256 µg/mL
[21]
  MBC: > 256 µg/mL
[22]
  MIC: 128 µg/mL (≈ 148 µM)
Pseudomonas aeruginosa [23]
  MIC: > 256 µg/mL
Bacillus subtilis
  diameter of the inhibition zone (DIZ): 13 mm
[24]
  MBC: > 256 µg/mL
[25]
  MIC: 256 µg/mL (≈ 296 µM)
[26]
  MBC: > 256 µg/mL
[27]
  MBC: > 256 µg/mL
Staphylococcus aureus [28]
  MIC: 64 µg/mL (≈ 73.9 µM)
[29]
  MBC: > 256 µg/mL
[30]
  MIC: 64 µg/mL (≈ 73.9 µM)
Escherichia coli [31]
  MBC: > 256 µg/mL
[32]
  MBC: > 256 µg/mL
[33]
  MBC: > 256 µg/mL
[34]
  MBC: > 256 µg/mL
[35]
  MIC: 128 µg/mL (≈ 148 µM)
[36]
  MBC: > 256 µg/mL
[37]
  MIC: 64 µg/mL (≈ 73.9 µM)
[38]
  MBC: > 256 µg/mL
[39]
  MBC: > 256 µg/mL
[40]
  MIC: 64 µg/mL (≈ 73.9 µM)
Pseudomonas aeruginosa [41]
  MBC: > 256 µg/mL
